Data: PubChem BioAssay AID1963837 (Molecular Pharmacology Branch, DTP, NCI, 2024)
Where “and” joins values, the source holds several entries; their conditions need not be identical. Equal entries are not always repeated.

Test system: 843126-344-R-J1-PDC complex spheroid viability
Experiment: Anticancer human tumor 843126-344-R-J1-PDC patient-derived melanoma cell line growth inhibition [POLQ]
Settings: for viability, T/C: stronger effect = lower value
Description: Multicellular complex tumor spheroid response to Polymerase (POL) inhibitors (novobiocin, ART-558, RP6685) in combination with a variety of drugs and investigational agents in selected tumor cell lines
The POL inhibitors (novobiocin, ART-558, and RP6685) were evaluated both individually and in combination with standard of care and investigational anticancer small molecules within a complex spheroid model of solid tumors. . Complex spheroids include a stromal component modeled by human endothelial cells (HUVEC) and fibroblasts modeled by human mesenchymal stem cells (MSCs). The concentration ranges selected for each drug and investigational agent were based upon clinically achievable concentrations if the clinical Cmax of the agent was known.
Compounds. The drugs and investigational agents: novobiocin (NSC847541), ART-558 (NSC835418), RP-6685 (NSC848927), peposertib (NSC802822), ceralasertib (NSC780249), elimusertib (NSC800525), camonsertib (NSC841442), AZD-1390 (NSC803789), olaparib (NSC753686), talazoparib (NSC767125), rucaparib (NSC756644), sotorasib (NSC818433), MRTX-1133 (NSC836407), SN-38 (NSC673596), topotecan (NSC609699), epotoside (NSC141540), doxorubicin (NSC123127), gemcitabine (NSC613327), 5-fluorouracil (NSC19893), paclitaxel (NSC125973), vemurafenib (NSC761431), MSA-2 (NSC828583), SN-011 (NSC837082), adavosertib (NSC754352), prexasertib (NSC758257), carboplatin (NSC241240) and oxaliplatin (NSC266046), were obtained from the National Cancer Institute (NCI) Developmental Therapeutics Program Chemical Repository (21). The FDA-approved anticancer drug set is available from the Developmental Therapeutics Program at https://dtp.cancer.gov/organization/dscb/obtaining/. […] The stock solutions were prepared in dimethyl sulfoxide (DMSO, Sigma-Aldrich, St. Louis, MO, cat. D2650), except for the platinum compounds which were prepared in saline (Quality Biological, Gaithersburg, MD, cat. 114-055-101), at 800-fold the tested concentration and stored at -70 degrees C prior to their use. All drugs and investigational agents were tested over a range starting from a high concentration at or near the clinical Cmax and decreasing in half-log increments. If the clinical Cmax for an agent had not been determined, the highest concentration tested was 10 microM, except for SN-38, which was tested at a high concentration of 1 microM.
Cell Culture. All cells were maintained in an incubator at 37 degrees C and 5% CO2 with 95% humidity. The PDC lines were cultured according to standard operating procedures established by the NCI PDMR (https://pdmr.cancer.gov). Table 3 of the manuscript, lists the cell lines along with the number of the three cell types plated to form the mct-spheroids and media for tumor cell growth. After thawing, all PDC lines, except 997537-175-T-J1-PDC and 415267-285-R-J2-PDC, were cultured in Matrigel-coated flasks prepared with a working solution of 1X Ham's F-12 nutrient mix, without supplementation (Thermo Fisher Scientific, cat. 11765054), 100 U/mL penicillin-streptomycin (Thermo Fisher Scientific, cat. 15140122), and 2.5% Matrigel (Corning Inc., Corning, NY, cat. 354248) for the first three passages. The two PDC lines 997537-175-T-J1-PDC and 415267-285-R-J2-PDC were cultured on uncoated flasks. The 857933-349-R-J2-PDC line was cultured in 6C/Colon 1B media containing advanced DMEM/F-12 (Thermo Fisher Scientific, cat. 12634028), 10 mM HEPES (Thermo Fisher Scientific, cat. 15630080), 1X GlutaMAX supplement (Thermo Fisher Scientific, cat. 35050061), 0.1 mg/mL primocin (InvivoGen, San Diego, CA, cat. ant-pm-2), 10% defined fetal bovine serum, heat inactivated (HyClone Laboratories Inc., Logan, UT, cat. SH30070.03HI), 50% L-WRN conditioned media (ATCC, cat. CRL-3276), 1.25 mM N-Acetyl-L-cysteine (Sigma-Aldrich, cat. A9165), 10 mM nicotinamide (Sigma-Aldrich, cat. N0636), 1X B-27 supplement (Thermo Fisher Scientific, cat. 17504044), 1X N-2 supplement (Thermo Fisher Scientific, cat. […]
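For viability, T/C in this document: spheroids exposed to drugs for seven days before readout.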

O=c1[nH]cc(F)c(=O)[nH]1 was tested, and the viability, T/C (compound 0.0316 µM) was 119% and 102% and 97%, the viability, T/C (compound 0.1 µM) was 107% and 84.6% and 86.3% and the viability, T/C (compound 0.316 µM) was 104% and 89.5% and 75.2%. For the same molecule, the viability, T/C (compound 1 µM) was 102% and 96.6% and 104%, the viability, T/C (compound 3.16 µM) was 106% and 98.3% and 96.6% and the viability, T/C (compound 10 µM) was 79.5% and 96.8% and 76.3%. The IC50 (curve of compound) was > 10000 nM.
CC1COCCN1c1cc(-c2ccnn2C)c2ccnc(-c3ccn[nH]3)c2n1 (centres undefined) + COC1C(OC(N)=O)C(O)C(Oc2ccc3c(O)c(NC(=O)c4ccc(O)c(CC=C(C)C)c4)c(=O)oc3c2C)OC1(C)C gave an IC50 (curve of first compound, second compound 0.0316 µM) of 1040 nM, an IC50 (curve of first compound, second compound 0.1 µM) of 875 nM and an IC50 (curve of first compound, second compound 0.316 µM) of 784 nM. For the same molecule, the IC50 (curve of first compound, second compound 1 µM) was 1270 nM, the IC50 (curve of first compound, second compound 3.16 µM) was 918 nM and the IC50 (curve of first compound, second compound 10 µM) was 1100 nM. The viability, T/C (second compound 0.0316 µM, first compound 0.0316 µM) was 98.7%, the viability, T/C (second compound 0.0316 µM, first compound 0.1 µM) was 69.8% and the viability, T/C (second compound 0.0316 µM, first compound 0.316 µM) was 66.3%. The viability, T/C (second compound 0.0316 µM, first compound 1 µM) was 54.2%, the viability, T/C (second compound 0.0316 µM, first compound 3.16 µM) was 35.5% and the viability, T/C (second compound 0.0316 µM, first compound 10 µM) was 34.2%. It also gave a viability, T/C (second compound 0.1 µM, first compound 0.0316 µM) of 81.1%, a viability, T/C (second compound 0.1 µM, first compound 0.1 µM) of 76.5% and a viability, T/C (second compound 0.1 µM, first compound 0.316 µM) of 67.1%. For the same molecule, the viability, T/C (second compound 0.1 µM, first compound 1 µM) was 47.2%, the viability, T/C (second compound 0.1 µM, first compound 3.16 µM) was 33.4% and the viability, T/C (second compound 0.1 µM, first compound 10 µM) was 26.4%. The viability, T/C (second compound 0.316 µM, first compound 0.0316 µM) was 92.4%, the viability, T/C (second compound 0.316 µM, first compound 0.1 µM) was 73.7% and the viability, T/C (second compound 0.316 µM, first compound 0.316 µM) was 60.4%. It also gave a viability, T/C (second compound 0.316 µM, first compound 1 µM) of 46.2%, a viability, T/C (second compound 0.316 µM, first compound 3.16 µM) of 38.1% and a viability, T/C (second compound 0.316 µM, first compound 10 µM) of 23.7%. The viability, T/C (second compound 1 µM, first compound 0.0316 µM) was 65.7%, the viability, T/C (second compound 1 µM, first compound 0.1 µM) was 77.5% and the viability, T/C (second compound 1 µM, first compound 0.316 µM) was 71.3%. It also gave a viability, T/C (second compound 1 µM, first compound 1 µM) of 53.5%, a viability, T/C (second compound 1 µM, first compound 3.16 µM) of 36.3% and a viability, T/C (second compound 1 µM, first compound 10 µM) of 32%. It also gave a viability, T/C (second compound 3.16 µM, first compound 0.0316 µM) of 73.3%, a viability, T/C (second compound 3.16 µM, first compound 0.1 µM) of 83% and a viability, T/C (second compound 3.16 µM, first compound 0.316 µM) of 58.5%. For the same molecule, the viability, T/C (second compound 3.16 µM, first compound 1 µM) was 45.9%, the viability, T/C (second compound 3.16 µM, first compound 3.16 µM) was 42.1% and the viability, T/C (second compound 3.16 µM, first compound 10 µM) was 25%. It also gave a viability, T/C (second compound 10 µM, first compound 0.0316 µM) of 73.3%, a viability, T/C (second compound 10 µM, first compound 0.1 µM) of 77.5% and a viability, T/C (second compound 10 µM, first compound 0.316 µM) of 61.5%. For the same molecule, the viability, T/C (second compound 10 µM, first compound 1 µM) was 46.1%, the viability, T/C (second compound 10 µM, first compound 3.16 µM) was 42.9% and the viability, T/C (second compound 10 µM, first compound 10 µM) was 24.3%.
